The test system of data set [1] is HCV (Jc-1 Wild-type virus). The data set can be described thus: Efficacy testing of Sofosbuvir and n-Propyl-Sofosbuvir in HCV-infected Huh7.5 cells, quantitative PCR of HCV RNA in supernatant. The note with it: for virus reduction / Ct-value (threshold cycle) of HCV-RNA: single application 48 h post infection; for virus reduction: two days treatment, inferred from Ct 28 vs 25; for Ct-value (threshold cycle) of HCV-RNA: μM range down to lowest dose, RNA extracted two days later, SYBR Green kit, untreated control Ct around 25 (FIG. 1); for antiviral profile (reduction of viral titer): single application, 72 h, concentrations down to 9 nM, Altona HCV quantification kit (FIG. 4); for amount of viral RNA (viral load) / reduction of viral RNA: two-time application, highest concentrations; for amount of viral RNA (viral load): CE-labeled PCR HCV quantification kit, controls around 10^7 IU/ml (FIG. 7); for reduction of viral RNA: versus controls. Format: cell-based, Hepatitis C virus. The protocol: HCV histochemistry and determination of virus titers. To determine virus titers, the protocol described by Linden bach et al. (2005) is slightly modified. 1×10^4 Huh-7.5 cells or 0.7×10^4 Lunet cells were seeded per 96-well 24 h prior to infection. Six wells are infected simultaneously with the same dilution of filtered cell culture supernatants of HCV transfected or infected cells. Usually, the first dilution is a 1:10 dilution followed by 1:6 dilutions. 72 h after infection, the cells are washed once with PBS and then fixed in ice-cold methanol for 20 min at −20° C. Afterwards, the cells are washed with PBS and then permeabilized with 0.5% Triton X-100 in PBS for 5 min at RT. The first antibody detecting the HCV NSSA protein (9E10) is diluted 1:2000 in PBS and was incubated on the cells for 1 h. Then the cells are washed again three times with PBS and stained with the secondary antibody (goat a-mouse coupled to HRP, Sigma) 1:200 in PBS for 45 min at RT. To detect the HCV positive cells, the wells are first washed again three times with PBS and then the HRP activity is detected by the addition of 30 μl Carbazole substrate/96-well for 15 min at RT. Afterwards, the substrate is replaced with water and the wells were analyzed by light microscopy for positive cells. The 50% tissue culture infectious dose (TCID50) is calculated based on the methods described by Spearman and Karber. By this, the concentrations of a virus isolation needed to infect 50% of a given number of wells is determined (Spearman, 1908). qPCR of viral supernatant. Total RNA was extracted by the Altostar system according to the protocol of the manufacturer. A Power SYBR Green RNA-to-Ct 1-step kit (Applied Biosystems) is used to quantify the amount of HCV RNA. Primers specific for the 5′ UTR are 5′-TGCGGAACCGGTGAGTACA-3′ (forward) and […]. The PCR program conditions are as follows: 30 min at 48° C. for reverse transcription, 10 min at 95° C. for enzyme activation, and 40 cycles of amplification with 15 s at 95° C. for denaturation and 1 min at 60° C. for annealing and extension. Standard curve reactions are run in parallel by using serially diluted Jc1/Gluc2A plasmid ranging from 2.0×10^7 to 2.0×10^0 copies. To confirm obtained for experiment 3 (FIGS. 4 and 7), PCR was performed using the Atlona HCV-quantification kit.
Efficacy Testing of Sofosbuvir and n-Propyl-Sofosbuvir (compound I″a). Huh7.5 cells (1×10^4 per well) were seeded in a 96-well plate. The following day cells were infected with 8500 TCID50/well of HCV (Jc-1 Wild-type virus) for infection. After 48 h cells were treated with Sofosbuvir, n-Propyl-Sofosbuvir and as a negative control with the solvent used for Sofosbuvir, n-Propyl-Sofosbuvir (DMSO/EtOH) at concentrations given in the Figures. Two days or three later, supernatants were harvested and RNA was extracted by the Altostar system according to the protocol of the manufacturer. Quantitative PCR was performed using the Atlona HCV-quantification kit as recommended by the manufacturer.
In one set of experiments, Sofosbuvir and n-Propyl-Sofosbuvir were applied 48 h post infection and again 24 h later as indicated by FIG. 5.
All experiments shown represent the mean of at least two independent sets of data performed in duplicates.

Data set [2] is described as follows: Bi-directional Caco-2 cell permeability assay. The note with it: human, Caco-2, pH 7.4. As for the experimental part: (§1) The bi-directional Caco-2 cell permeability assay was performed as described as follows: Caco-2 cells (ECACC) were seeded onto 24-well Transwell plates at 2×10^5 cells per well and used in confluent monolayers after a 21 day culture at 37° C. under 5% CO2. Test and control compounds (propranolol, vinblastine), prepared in DMSO, were added (10 μM, 0.1% DMSO final, n=2) to donor compartments of the Transwell plate assembly in assay buffer (Hanks balanced salt solution supplemented with 25 mM HEPES, adjusted to pH 7.4) for both apical to basolateral (A>B) and basolateral to apical (B>A) measurements. Incubations were performed at 37° C., with samples removed from both donor and acceptor chambers at T=0 and 1 hour and compound analysed by mass spectrometry (LC-MS/MS) including an analytical internal standard.
(§2) Apparent permeability (Papp) values were determined from the relationship: Papp=[CompoundAcceptor T=end]×VAcceptor/([CompoundDonor T=0]×VDonor)/incubation time×VDonor/Area×60×10-6 cm/s
(§3) Where V is the volume of each Transwell compartment (apical 125 μL, basolateral 600 μL), and concentrations are the relative MS responses for compound (normalized to internal standard) in the donor chamber before incubation and acceptor chamber at the end of the incubation.
(§4) Area=area of cells exposed for drug transfer (0.33 cm2).
(§5) Efflux ratios (Papp B>A/Papp A>B) were calculated for each compound from the mean Papp values in each direction.
(§6) Lucifer Yellow (LY) was added to the apical buffer in all wells to assess viability of the cell layer.
(§7) Compound recovery from the wells was determined from MS responses (normalized to internal standard) in donor and acceptor chambers at the end of incubation compared to response in the donor chamber pre-incubation.
(In general: Caco-2 monolayers are a common model of the intestinal barrier.)

For another data set, the system named is Caco-2 cells. The data set can be described thus: Bi-directional Caco-2 cell permeability assay. The note with it: for permeability classification in the A>B direction: Caco-2; for efflux transporter substrate finding: efflux ratio larger than 2. As for the experimental part: as §1, §2, §3, §4, §5, §6, §7
The subject of data set [3] is HCV-Jc-1 tagged to a yellow fluorescent protein. To be noted: after 48 h of infection; Liu et al., Antimicrob. Agents Chemother. 2015; cited from earlier work.

Usually Papp A→B stands for how fast a substance crosses the layer from the apical side. Low values mean slow passage, high ones fast passage. One may read the efflux ratio as a quotient of directional permeabilities that is used to spot active efflux. Usually IC50 stands for the midpoint of a concentration-inhibition curve. For `CC(C)OC(=O)[C@H](C)N[P@](=O)(OC[C@H]1O[C@@H](n2ccc(=O)[nH]c2=O)[C@](C)(F)[C@@H]1O)Oc1ccccc1` [Sofosbuvir, (S)-isopropyl 2-(((S)-(((2R,3R,4R,5R)-5-(2,4-dioxo-3,4-dihydropyrimidin-1(2H)-yl)-4-fluoro-3-hydroxy-4-methyltetrahydrofuran-2-yl)methoxy)(phenoxy)phosphoryl)-amino)propanoate], in data set [1], the virus reduction entry is listed as “about 1 log”, the “Ct-value (threshold cycle) of HCV-RNA” value is given as “around 28”, the “antiviral profile (reduction of viral titer)” value is listed as “comparable antiviral profile” and the “amount of viral RNA (viral load)” value was 6.5×10^5 IU/ml. Besides, in data set [1], the “reduction of viral RNA” value is “about 95%”. Moreover, in data set [2], the apparent permeability from apical to basolateral (Papp A→B) at 1 h, 10 μM is 4 ×10⁻⁶ cm/s and the efflux ratio at 1 h, 10 μM turned out to be 4.6. In the data set on Caco-2 cells, the “permeability classification in the A>B direction” value is “low permeable” and the “efflux transporter substrate finding” value is “substrates of efflux transporters”. Besides, the IC50 in data set [3] was over 10 µM.

`CCCOC(=O)[C@H](C)N[P@](=O)(OC[C@H]1O[C@@H](n2ccc(=O)[nH]c2=O)[C@](C)(F)[C@@H]1O)Oc1ccccc1` [n-Propyl-Sofosbuvir, (S)-n-propyl 2-(((S)-(((2R,3R,4R,5R)-5-(2,4-dioxo-3,4-dihydropyrimidin-1(2H)-yl)-4-fluoro-3-hydroxy-4-methyltetrahydrofuran-2-yl)methoxy)(phenoxy)phosphoryl)-amino)propanoate]: in data set [1], the virus reduction result is “about 1 log”, the “Ct-value (threshold cycle) of HCV-RNA” value was “around 28”, the “antiviral profile (reduction of viral titer)” value is given as “comparable antiviral profile” and the “amount of viral RNA (viral load)” value was 6.5×10^5 IU/ml. Moreover, the “reduction of viral RNA” value in data set [1] was “about 95%”. In data set [2], the Papp A→B at 1 h, 10 μM came to 2 ×10⁻⁶ cm/s and the efflux ratio at 1 h, 10 μM was determined as 4.4. In the data set with Caco-2 cells, the “permeability classification in the A>B direction” value is “low permeable” and the “efflux transporter substrate finding” value is on record as “substrates of efflux transporters”.

For the compound `CC[C@]1(O)C[C@@H]2CN(CCc3c([nH]c4ccccc34)[C@@](C(=O)OC)(c3cc4c(cc3OC)N(C)[C@H]3[C@@](O)(C(=O)OC)[C@H](OC(C)=O)[C@]5(CC)C=CCN6CC[C@]43[C@@H]65)C2)C1` [vinblastine], the Papp A→B at 1 h, 10 μM in data set [2] is 5 ×10⁻⁶ cm/s.

These data come from patent publication US20190185507A1 (priority 2016, published 2019).
